Measurements: patent US5173486A, “Dibenz[b,f][1,4]oxazepin-11(10H)-ones for multidrug resistance reversing agents” (Bristol-Myers Squibb Company, priority 1991, dated 1992)
Where “and” joins values, the source holds several entries; their conditions need not be identical. Identical values can stand only once. Like-named read-outs stand apart in the source and are kept apart here. *1 amine or outer side, *2 acyl side, *3 side chain or, on linkers, in order; H or OH if unused. Where a SMILES comes first, the peptide text is derived from it. Bridges are numbered along the chain shown (N, C = ends). Roman numbers before positions name the chains, in order. [ ]: non-standard residue; d: D form. Actinocin(9to1) = Cc1c2oc3c(C)ccc(C(=O)[*:1])c3nc-2c(C(=O)[*:2])c(N)c1=O; NMeV = CN[C@H](C(=O)O)C(C)C; Sar = CNCC(=O)O

Assays:
Type in all cases: cell-based
MCF-7 cells = assay: Cytotoxic assay, Adriamycin in sensitive human breast carcinoma MCF-7 cells; details: MCF-7 (sensitive); ADR; no chemosensitizer; 2880 min
Description: (§1) Cell Culture: HCT116/VM46 cells were selected from human colon carcinoma HCT116 cell line for resistance to VM26 and MCF-7/ADR cells were selected from human breast carcinoma MCF-7 cell line for resistance to Adriamycin. […] The cell lines were grown in tissue culture flasks containing McCoy's A medium and 10% fetal bovine serum. Cells were maintained at 37° C. in a humidified atmosphere containing 5% CO2 and subcultured every 5 days.
(§2) Cytotoxic Assay: The cells were seeded in 96 well microtiter plates at 5×10^3 cells per well and allowed to grow for 24 hours at 37° C. Cells were then incubated with decreasing amounts of antitumor agents: Adriamycin (100 μM, maximal concentration) or actinomycin D (17.6 ng/ml), for MCF-7 and HCT-116 cells, respectively. Chemosensitizers were added at variable concentrations ranging from 0.08 μM to 40 μM. In parallel, verapamil was used as positive control at the same concentrations. After 48 hours of incubation, the cells were washed, fixed and stained with crystal violet. Absorbance was read by Molecular Devices' microtiter plate reader at the wavelength of 595nm. The IC50 value (50% inhibition of cell growth) was determined from relative survival rates resulted from two to three independent experiments. […]

MCF-7/ADR cells = assay: Cytotoxic assay, MDR reversing effects of chemosensitizers with Adriamycin in human breast carcinoma MCF-7 resistant cells; details: for Fold Resistance: ADR; for IC50: read-out: ADR IC50
Description: as §1
(§3) Cytotoxic Assay: The cells were seeded in 96 well microtiter plates at 5×10^3 cells per well and allowed to grow for 24 hours at 37° C. Cells were then incubated with decreasing amounts of antitumor agents: Adriamycin (100 μM, maximal concentration) or actinomycin D (17.6 ng/ml), for MCF-7 and HCT-116 cells, respectively. Chemosensitizers were added at variable concentrations ranging from 0.08 μM to 40 μM. In parallel, verapamil was used as positive control at the same concentrations. After 48 hours of incubation, the cells were washed, fixed and stained with crystal violet. Absorbance was read by Molecular Devices' microtiter plate reader at the wavelength of 595nm. The IC50 value (50% inhibition of cell growth) was determined from relative survival rates resulted from two to three independent experiments. The term "fold resistance" was defined as the ratio of the IC50 for antitumor drug in the presence or absence of chemosensitizer in resistant cells divided by the IC50 for antitumor drug in its sensitive counterpart. This value provides an estimate of the apparent potency of each reversing agent in enhancing drug effect.

HCT116 cells = assay: Cytotoxic assay, actinomycin D in sensitive human colon carcinoma HCT116 cells; details: no chemosensitizer
Description: as §1, §2

HCT-116/VM46 cells = assay: Cytotoxic assay, MDR reversing effects of chemosensitizers with actinomycin D in human colon carcinoma HCT-116 resistant cells; details: for Fold Resistance: ActD; for ActD IC50: 48 hours
Description: as §1, §3

[1] = chemosensitizer 0.4 μM, IC50 ratio to sensitive HCT116

Compound: COc1cccc2c1C(=O)c1c(O)c3c(c(O)c1C2=O)C[C@@](O)(C(=O)CO)C[C@@H]3O[C@H]1C[C@H](N)[C@H](O)[C@H](C)O1 [ADR, reference compound]
- Fold Resistance (MCF-7 cells): 1
- Fold Resistance (MCF-7/ADR cells; no chemosensitizer, IC50 ratio to sensitive MCF-7, 2880 min): 138.9
- IC50 (MCF-7/ADR cells; Homo sapiens, 48 h): 50 µM

Compound: Cc1c2oc3c(C)ccc(C(=O)N[C@@H]4C(=O)N[C@H](C(C)C)C(=O)N5CCC[C@H]5C(=O)N(C)CC(=O)N(C)[C@@H](C(C)C)C(=O)O[C@@H]4C)c3nc-2c(C(=O)N[C@@H]2C(=O)N[C@H](C(C)C)C(=O)N3CCC[C@H]3C(=O)N(C)CC(=O)N(C)[C@@H](C(C)C)C(=O)O[C@@H]2C)c(N)c1=O [ActD, reference compound] (I: T[dV]P[Sar][NMeV] / II: T[dV]P[Sar][NMeV]; ester I:1-I:C, II:1-II:C; linker I:N-II:N via Actinocin(9to1))
- Fold Resistance (HCT116 cells; ActD, 2880 min): 1.0
- ActD IC50 (HCT116 cells; 48 hours): 0.5 ng/mL
- Fold Resistance (HCT-116/VM46 cells; no chemosensitizer, IC50 ratio to sensitive HCT116, 2880 min, 2880 min): 15.6 and 20.0

Compound: CCN(CC)CCN1C(=O)c2cc(Cl)c(NC(=O)C(C)C)cc2Oc2cc(C(F)(F)F)ccc21 [Ii, N-[2-Chloro-10,11-dihydro-10-[2-(diethylamino)ethyl-11-oxo-7-(trifluoromethyl)dibenz[b.f]1,4]oxezpin-3-yl]-2-methylpropionamide]
- Fold Resistance (HCT-116/VM46 cells; [1]): 3.4
- ActD IC50 (HCT-116/VM46 cells; chemosensitizer 0.4 μM): 1.7 ng/mL
- Fold Resistance (MCF-7/ADR cells; chemosensitizer 0.67 μM, IC50 ratio to sensitive MCF-7): 28.9
- IC50 (MCF-7/ADR cells; chemosensitizer 0.67 μM, 48 hours): 10.4 µM

Compound: C=C(CC)C(=O)c1ccc(OCC(=O)Nc2cc3c(cc2Cl)C(=O)N(CCN(CC)CC)c2ccc(C(F)(F)F)cc2O3)c(Cl)c1Cl [Io]
- Fold Resistance (HCT-116/VM46 cells; [1]): 3.6
- ActD IC50 (HCT-116/VM46 cells; chemosensitizer 0.4 μM): 1.8 ng/mL

Compound: CCN(CC)CCN1C(=O)c2cc(Cl)c(NC(=O)C3CCCC3)cc2Oc2cc(C(F)(F)F)ccc21 [Ip]
- Fold Resistance (HCT-116/VM46 cells; chemosensitizer 0.24 μM, IC50 ratio to sensitive HCT116): 3.4
- ActD IC50 (HCT-116/VM46 cells; chemosensitizer 0.24 μM): 1.7 ng/mL
